From ChEMBL document CHEMBL1201862, “PubChem BioAssay data set” (2004)
Activity calls are given as the source filed them.

Columns and labels:
[1] = molecular target: T1, Caspase-3 (Homo sapiens, UniProt P42574); assay type: functional;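 further: Dose-response selectivity test against caspase-3 for candidate inhibitors of sentrin-specific proteases (SENPs)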
T1 sequence (P42574 whole entry): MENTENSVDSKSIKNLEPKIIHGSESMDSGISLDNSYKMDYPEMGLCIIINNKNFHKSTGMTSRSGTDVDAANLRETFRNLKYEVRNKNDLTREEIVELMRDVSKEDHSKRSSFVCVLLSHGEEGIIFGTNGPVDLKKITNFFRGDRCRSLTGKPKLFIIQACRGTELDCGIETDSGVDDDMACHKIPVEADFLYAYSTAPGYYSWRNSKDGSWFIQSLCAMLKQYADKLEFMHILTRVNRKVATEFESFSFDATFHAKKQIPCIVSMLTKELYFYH

[2] = molecular target: T2, Sentrin-specific protease 7 (Homo sapiens, UniProt Q9BQF6); assay type: functional;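 further: Luminescence-based dose-response confirmation of ultra-high-throughput screening hits, measuring inhibition of SENP7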
T2 sequence (Q9BQF6 whole entry): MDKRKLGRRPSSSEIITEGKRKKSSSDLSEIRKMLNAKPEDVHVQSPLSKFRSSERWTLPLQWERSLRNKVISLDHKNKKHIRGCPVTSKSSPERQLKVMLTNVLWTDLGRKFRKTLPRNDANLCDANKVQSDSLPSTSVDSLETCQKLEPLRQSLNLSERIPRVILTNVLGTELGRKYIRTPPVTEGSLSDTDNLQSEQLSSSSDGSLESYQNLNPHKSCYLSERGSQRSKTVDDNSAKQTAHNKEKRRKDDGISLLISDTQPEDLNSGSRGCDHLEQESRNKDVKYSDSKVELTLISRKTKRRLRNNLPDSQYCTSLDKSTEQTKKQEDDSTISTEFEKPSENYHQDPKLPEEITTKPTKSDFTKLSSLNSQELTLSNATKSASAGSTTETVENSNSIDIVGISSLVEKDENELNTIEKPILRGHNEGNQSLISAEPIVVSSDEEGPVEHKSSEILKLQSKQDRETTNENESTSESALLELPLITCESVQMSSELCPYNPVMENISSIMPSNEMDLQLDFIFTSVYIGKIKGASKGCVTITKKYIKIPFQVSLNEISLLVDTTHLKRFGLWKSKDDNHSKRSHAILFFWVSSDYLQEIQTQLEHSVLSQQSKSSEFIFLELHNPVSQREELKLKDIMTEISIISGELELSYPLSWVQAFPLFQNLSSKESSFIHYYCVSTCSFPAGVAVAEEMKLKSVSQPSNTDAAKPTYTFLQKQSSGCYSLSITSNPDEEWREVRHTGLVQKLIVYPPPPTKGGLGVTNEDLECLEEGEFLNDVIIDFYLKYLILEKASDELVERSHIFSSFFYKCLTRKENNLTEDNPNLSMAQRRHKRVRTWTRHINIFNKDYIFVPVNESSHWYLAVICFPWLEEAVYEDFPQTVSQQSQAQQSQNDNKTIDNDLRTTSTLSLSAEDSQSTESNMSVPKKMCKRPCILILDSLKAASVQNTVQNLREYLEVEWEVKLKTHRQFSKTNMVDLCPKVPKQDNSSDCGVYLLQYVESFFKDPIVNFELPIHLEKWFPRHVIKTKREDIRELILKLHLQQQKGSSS

[3] = molecular target: T3, Sentrin-specific protease 6 (Homo sapiens, UniProt Q9GZR1); assay type: functional;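 further: Luminescence-based dose-response confirmatory assay of SENP6 inhibition, following up an ultra-high-throughput screen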
T3 sequence (Q9GZR1 whole entry): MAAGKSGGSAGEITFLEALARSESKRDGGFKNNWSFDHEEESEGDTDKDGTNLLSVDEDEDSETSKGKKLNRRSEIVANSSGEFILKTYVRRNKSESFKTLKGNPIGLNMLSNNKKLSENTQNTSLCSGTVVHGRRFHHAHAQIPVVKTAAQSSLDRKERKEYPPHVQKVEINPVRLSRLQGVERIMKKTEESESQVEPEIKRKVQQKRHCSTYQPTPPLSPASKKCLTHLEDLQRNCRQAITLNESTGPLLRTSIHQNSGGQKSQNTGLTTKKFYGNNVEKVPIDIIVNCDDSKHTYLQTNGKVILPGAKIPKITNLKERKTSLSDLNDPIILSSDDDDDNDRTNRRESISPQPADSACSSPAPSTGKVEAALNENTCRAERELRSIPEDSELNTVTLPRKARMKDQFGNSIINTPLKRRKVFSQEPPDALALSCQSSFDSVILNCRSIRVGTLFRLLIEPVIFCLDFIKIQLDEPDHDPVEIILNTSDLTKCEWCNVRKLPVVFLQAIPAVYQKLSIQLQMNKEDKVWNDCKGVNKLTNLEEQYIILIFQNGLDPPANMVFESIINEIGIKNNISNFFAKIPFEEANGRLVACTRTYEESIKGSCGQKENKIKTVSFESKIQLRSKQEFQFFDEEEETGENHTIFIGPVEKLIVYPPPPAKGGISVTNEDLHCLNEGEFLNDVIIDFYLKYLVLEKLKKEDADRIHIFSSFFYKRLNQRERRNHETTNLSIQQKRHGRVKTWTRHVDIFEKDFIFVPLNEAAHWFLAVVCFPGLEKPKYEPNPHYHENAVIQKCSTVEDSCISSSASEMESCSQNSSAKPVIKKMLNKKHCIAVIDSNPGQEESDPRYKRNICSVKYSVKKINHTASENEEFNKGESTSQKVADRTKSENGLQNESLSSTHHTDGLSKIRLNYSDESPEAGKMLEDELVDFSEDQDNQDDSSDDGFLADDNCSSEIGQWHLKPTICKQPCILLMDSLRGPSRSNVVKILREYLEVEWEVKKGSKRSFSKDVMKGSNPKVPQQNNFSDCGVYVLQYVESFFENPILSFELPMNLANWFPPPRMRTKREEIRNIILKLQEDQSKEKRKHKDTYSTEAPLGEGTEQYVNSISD

[4] = molecular target: T4, Sentrin-specific protease 8 (Homo sapiens, UniProt Q96LD8); assay type: functional;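 further: luminescence read-out of SENP8 inhibition, dose-response confirmation following an ultra-high-throughput screen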
T4 sequence (Q96LD8 whole entry): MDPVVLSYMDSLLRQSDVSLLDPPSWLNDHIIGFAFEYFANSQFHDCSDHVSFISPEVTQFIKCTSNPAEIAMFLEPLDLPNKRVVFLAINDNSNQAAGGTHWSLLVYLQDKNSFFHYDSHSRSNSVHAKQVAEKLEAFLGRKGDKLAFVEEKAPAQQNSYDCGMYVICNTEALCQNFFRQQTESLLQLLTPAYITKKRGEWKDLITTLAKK

[5] = Luminescence-based cell-based high throughput dose response assay to identify activators of the DAF-12 from the parasite S. stercoralis (ssDAF-12).; assay type: functional
[6] = molecular target: T5, Oxysterols receptor LXR-beta (Homo sapiens, UniProt P55055); test: LXR agonists, Gal4 luciferase reporter, dose response, counter-screen for ssDAF-12 agonist project, cell-based, luminescence, HEK293, S. stercoralis campaign (AID 720737); assay type: functional; details: read-out: IC50 (the source's name)
T5 sequence (P55055 whole entry): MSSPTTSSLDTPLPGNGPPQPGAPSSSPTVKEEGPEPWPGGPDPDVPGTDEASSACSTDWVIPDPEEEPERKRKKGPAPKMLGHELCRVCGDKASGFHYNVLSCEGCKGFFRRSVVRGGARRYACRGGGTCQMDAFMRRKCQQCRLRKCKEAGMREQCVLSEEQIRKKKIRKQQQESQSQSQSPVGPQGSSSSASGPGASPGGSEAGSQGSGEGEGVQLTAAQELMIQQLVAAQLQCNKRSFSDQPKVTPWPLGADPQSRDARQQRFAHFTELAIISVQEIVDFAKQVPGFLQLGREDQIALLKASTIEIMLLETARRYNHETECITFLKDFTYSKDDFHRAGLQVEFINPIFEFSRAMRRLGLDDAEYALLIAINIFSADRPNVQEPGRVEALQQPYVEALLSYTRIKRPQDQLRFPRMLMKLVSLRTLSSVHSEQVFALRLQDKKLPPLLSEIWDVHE

[7] = molecular target: T5, Oxysterols receptor LXR-beta; assay type: functional, cell-based
[8] = cells
[9] = molecular target: T6, Streptokinase A (Streptococcus pyogenes serotype M1, UniProt P10520); test: viability-normalized secreted streptokinase activity reduction – plasminogen activation absorbance, OD405, dose response (AID 1914); assay type: functional, Streptococcus pyogenes M1 GAS;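 further: secreted streptokinase activity via plasminogen activation per viability signal from cell pellet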
T6 sequence (P10520 whole entry): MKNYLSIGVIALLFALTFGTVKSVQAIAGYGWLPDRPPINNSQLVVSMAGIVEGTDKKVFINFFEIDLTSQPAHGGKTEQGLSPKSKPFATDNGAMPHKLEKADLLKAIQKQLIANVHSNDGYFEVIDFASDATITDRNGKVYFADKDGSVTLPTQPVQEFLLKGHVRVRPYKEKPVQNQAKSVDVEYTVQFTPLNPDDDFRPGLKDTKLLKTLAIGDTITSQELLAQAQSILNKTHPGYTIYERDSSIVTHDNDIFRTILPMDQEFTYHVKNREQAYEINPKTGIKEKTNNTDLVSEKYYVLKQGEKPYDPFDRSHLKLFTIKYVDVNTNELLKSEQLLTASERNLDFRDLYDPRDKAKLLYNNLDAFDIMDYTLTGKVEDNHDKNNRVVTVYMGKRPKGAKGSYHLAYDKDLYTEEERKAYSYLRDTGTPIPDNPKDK

[10] = system: Streptococcus; test: GAS UMAA2166 growth inhibition – luminescence, BacTiterGlo, counter-screen for streptokinase expression inhibitor project, dose response (AID 1915); assay type: functional, organism-based;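 further: potency for reduction of bacterial viability or growth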
[11] = molecular target: T7, Heat shock factor protein 1 (Mus musculus, UniProt P38532); test: enhancement of HSF1-driven luciferase signal – cell-based, NIH3T3, luminescence, dose retest, confirmation (AID 435004); assay type: functional;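 further: stress induced by proteasome inhibitor MG132 added 30 min after compound; luciferase reporter driven by HSF1 response element in NIH3T3 cells; actives raise luminescence as potentiators of the MG132 stress response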
T7 sequence (P38532 whole entry): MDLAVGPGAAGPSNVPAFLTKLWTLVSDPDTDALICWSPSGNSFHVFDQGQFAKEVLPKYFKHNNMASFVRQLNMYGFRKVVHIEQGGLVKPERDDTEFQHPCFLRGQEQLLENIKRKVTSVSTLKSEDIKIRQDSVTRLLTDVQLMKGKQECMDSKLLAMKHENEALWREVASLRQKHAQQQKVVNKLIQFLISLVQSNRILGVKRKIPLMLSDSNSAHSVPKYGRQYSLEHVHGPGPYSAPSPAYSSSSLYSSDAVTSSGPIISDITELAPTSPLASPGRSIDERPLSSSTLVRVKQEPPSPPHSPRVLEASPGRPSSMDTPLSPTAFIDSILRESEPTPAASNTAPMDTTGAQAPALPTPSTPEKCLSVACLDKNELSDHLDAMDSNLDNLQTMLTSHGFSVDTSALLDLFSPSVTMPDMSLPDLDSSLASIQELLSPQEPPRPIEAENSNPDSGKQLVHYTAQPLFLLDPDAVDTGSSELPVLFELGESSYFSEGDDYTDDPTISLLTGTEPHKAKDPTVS

[12] = viability loss in HepG2 hepatoma cells – cell-based, ATP luminescence, cherry-pick, activator set 2, cytotoxicity control, dose response (AID 1053143); assay type: functional
[13] = system: CHO; test: CHO cell viability loss, potency – luminescence, cytotoxicity control for TLR9-MyD88 binding inhibitor project, dose response (AID 588339); assay type: functional, cell-based, hamster; details: Cricetulus griseus;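 further: CHO cells stably coexpressing TLR9 and MyD88 fusions from primary screen; compound exposure lasted 48 hours before viability readout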
[14] = molecular target: Beta Lactamase (Pseudomonas aeruginosa, UniProt Q932Y6); test: BLA reporter interference, concentration series – BLA reporter cells, FRET fluorescence, artefact control for TLR9-MyD88 binding inhibitor project, dose response (AID 588341); assay type: cell-based;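 further: cell based assay in CHO-K1 cells stably expressing beta-lactamase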
Chain of Beta Lactamase (Q932Y6 whole entry, the tested form may be a part): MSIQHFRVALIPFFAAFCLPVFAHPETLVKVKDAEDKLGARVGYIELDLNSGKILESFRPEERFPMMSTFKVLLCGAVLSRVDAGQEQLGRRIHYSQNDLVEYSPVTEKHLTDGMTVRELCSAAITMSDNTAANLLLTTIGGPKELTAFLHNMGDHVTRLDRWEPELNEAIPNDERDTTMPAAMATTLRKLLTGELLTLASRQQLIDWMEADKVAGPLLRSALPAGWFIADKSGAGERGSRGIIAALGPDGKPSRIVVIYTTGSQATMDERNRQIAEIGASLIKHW

[15] = molecular target: Photoreceptor-specific nuclear receptor (Homo sapiens, UniProt Q9Y5X4); assay type: functional, cell-based;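 further: CHO-S cells with Gal4-NCOR and VP16-NR2E3 two-hybrid luciferase reporter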
Chain of Photoreceptor-specific nuclear receptor (Q9Y5X4 whole entry, the tested form may be a part): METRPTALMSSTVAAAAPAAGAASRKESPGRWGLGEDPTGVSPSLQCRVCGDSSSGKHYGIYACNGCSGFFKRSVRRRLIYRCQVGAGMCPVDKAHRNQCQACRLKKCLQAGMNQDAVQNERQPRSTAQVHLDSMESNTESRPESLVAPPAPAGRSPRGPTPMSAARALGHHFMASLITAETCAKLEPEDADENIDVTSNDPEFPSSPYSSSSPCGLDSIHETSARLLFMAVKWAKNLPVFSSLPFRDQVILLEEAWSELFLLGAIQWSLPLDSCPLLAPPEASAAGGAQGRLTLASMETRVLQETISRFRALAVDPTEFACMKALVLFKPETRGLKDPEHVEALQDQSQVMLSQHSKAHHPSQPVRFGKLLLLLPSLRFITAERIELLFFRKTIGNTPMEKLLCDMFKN

[16] = reduced cellular PGC1a acetyl-lysine signal – cell-based, cherry-picked samples, dose response (AID 720514); assay type: functional;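 further: potency may reflect raised or lowered acetylation signal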
[17] = Late stage assay provider counterscreen for TLR9 inhibitors: absorbance-based cell-based MTT cytotoxicity assay.; assay type: functional
[18] = system: HEK293; test: viability loss in HEK293T cells – cell-based, ATP luminescence, cherry-pick samples, cytotoxicity control, dose response (AID 687005); assay type: functional; details: Homo sapiens;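 further: cells exposed to compound for 48 hours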
[19] = HEK293 Cytotoxicity Assay Measured in Cell-Based System Using Plate Reader - 7071-01_Inhibitor_Dose_CherryPick_Activity_Set2.; assay type: functional
[20] = molecular target: Potassium channel subfamily K member 9 (Homo sapiens, UniProt Q9NPC2); test: KCNK9 flux blockade, concentration-response – cell-based, FluxOR thallium flux, selectivity assay for TASK1 inhibitor project, SAR follow-up (AID 652211); assay type: functional;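 further: potency is for inhibitors of the channel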
Chain of Potassium channel subfamily K member 9 (Q9NPC2 whole entry): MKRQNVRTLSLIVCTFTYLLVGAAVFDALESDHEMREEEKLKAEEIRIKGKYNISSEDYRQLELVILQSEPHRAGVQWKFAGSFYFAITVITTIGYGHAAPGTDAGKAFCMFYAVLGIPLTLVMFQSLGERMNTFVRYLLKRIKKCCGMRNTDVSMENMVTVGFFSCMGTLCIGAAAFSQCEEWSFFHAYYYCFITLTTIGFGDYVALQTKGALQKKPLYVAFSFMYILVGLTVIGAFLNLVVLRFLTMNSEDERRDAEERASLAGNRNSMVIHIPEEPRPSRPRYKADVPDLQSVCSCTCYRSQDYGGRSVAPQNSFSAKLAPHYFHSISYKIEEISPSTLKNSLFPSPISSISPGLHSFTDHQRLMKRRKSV

[21] = molecular target: Potassium channel subfamily K member 3 (Homo sapiens, UniProt O14649); test: inhibition of human KCNK3 channel flux – CHO cells, FluxOR thallium flux, SAR follow-up (AID 652212); assay type: functional
Chain of Potassium channel subfamily K member 3 (O14649 whole entry): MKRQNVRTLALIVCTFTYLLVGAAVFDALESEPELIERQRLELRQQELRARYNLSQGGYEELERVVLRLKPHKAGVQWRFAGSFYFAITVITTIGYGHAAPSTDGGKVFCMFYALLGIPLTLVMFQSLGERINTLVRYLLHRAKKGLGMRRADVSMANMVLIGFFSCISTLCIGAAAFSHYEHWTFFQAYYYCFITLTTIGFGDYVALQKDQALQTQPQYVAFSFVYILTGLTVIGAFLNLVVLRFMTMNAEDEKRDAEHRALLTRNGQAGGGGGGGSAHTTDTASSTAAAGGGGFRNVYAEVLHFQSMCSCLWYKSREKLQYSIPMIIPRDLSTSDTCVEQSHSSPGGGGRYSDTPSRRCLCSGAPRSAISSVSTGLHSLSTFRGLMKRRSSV

[22] = Late stage assay provider results from the probe development effort to identify selective inhibitors of heat shock protein 90 (HSP90): Absorbance-based cell proliferation assay in SKBR3 cells.; assay type: functional; details: SK-BR-3
[23] = Late stage assay provider results from the probe development effort to identify selective inhibitors of heat shock protein 90 (HSP90): Absorbance-based cell proliferation assay in MCF7 cells.; assay type: functional

Compound: O=C(Nc1nc2ccccc2[nH]1)Nc1ccccc1F
- IC50 [1]: 18.5 µM (active)
- IC50 [2]: 7.28 µM (active)
- IC50 [3]: 10.6 µM (active)
- IC50 [4]: 14.5 µM (active)
- IC50 [5]: > 67.5 µM (inactive)
- EC50 [6]: > 67.5 µM (inactive)
- EC50 [7]: > 67.5 µM (inactive)
- EC50 [8]: > 67.5 µM (inactive)

Compound: Cn1nnc(-c2ccc(OCc3ccccc3F)cc2)n1
- EC50 [9]: > 150 µM (not active)
- EC50 [10]: > 150 µM (not active)
- EC50 [11]: > 260 µM (inactive)
- AC50 [12]: 26 µM (active)

Compound: COc1ccc(C[C@@H]2OC3(C=CC(=O)C=C3)O[C@H]2Cc2ccc(OC)cc2)cc1
- IC50 [13]: 0.597 µM (active)
- IC50 [14]: 17.5 µM (inactive)
- IC50 [15]: 0.149 µM (active)
- AC50 [16]: 0.756 µM (active)
- CC50 [17]: 0.48 µM (active)

Compound: COc1ccc(NC(=O)Nc2ccc3c(c2)C(=O)N([C@H](C)CO)C[C@H](C)[C@H](CN(C)C(=O)Cc2ccccc2)OCCCC[C@H](C)O3)cc1
- AC50 [18]: 25.4 µM (active)
- AC50 [19]: 25.4 µM (active)

Compound: CCOc1ccccc1NC(=O)c1cccc(NC(=O)c2cccc(C(F)(F)F)c2)c1
- IC50 [20]: 1.38 µM (active)
- IC50 [21]: 0.232 µM (active)

Compound: COc1c[nH]c(C(=O)Nc2ccc(C(C)C)cc2)cc1=O
- IC50 [22]: > 100 µM (inactive)
- IC50 [23]: > 100 µM (inactive)
